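Where inhibition never reached the appropriate level, the endpoint shown equals the highest concentration tested. Otherwise, values were interpolated linearly from a five-concentration, 48-hour dose response in 96-well plates. The concentration for 50% growth inhibition is given as GI50. Definition used: TGI = concentration required for complete inhibition of growth.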
Experiments:
Experiment in all cases: DTP human tumour cell line panel, 48 h
RPMI-8226 leukemia = system: RPMI-8226 leukemia
PC-3 prostate = system: PC-3 prostate
K-562 leukemia = system: K-562 leukemia
A549 NSCLC = system: A549 NSCLC
MALME-3M melanoma = system: MALME-3M melanoma
UACC-62 melanoma = system: UACC-62 melanoma
SN12C renal = system: SN12C renal
CCRF-CEM leukemia = system: CCRF-CEM leukemia
HCT-15 colon = system: HCT-15 colon
SK-MEL-28 melanoma = system: SK-MEL-28 melanoma
SK-MEL-5 melanoma = system: SK-MEL-5 melanoma
OVCAR-8 ovarian = system: OVCAR-8 ovarian
786-0 renal = system: 786-0 renal
LOX IMVI melanoma = system: LOX IMVI melanoma
MOLT-4 leukemia = system: MOLT-4 leukemia
U251 CNS = system: U251 CNS
HOP-92 NSCLC = system: HOP-92 NSCLC
HL-60(TB) leukemia = system: HL-60(TB) leukemia
SW-620 colon = system: SW-620 colon
SR leukemia = system: SR leukemia
T-47D breast = system: T-47D breast
NCI/ADR-RES ovarian = system: NCI/ADR-RES ovarian
COLO 205 colon = system: COLO 205 colon
NCI-H522 lung = system: NCI-H522 lung
HT29 colon = system: HT29 colon
OVCAR-4 ovarian = system: OVCAR-4 ovarian
OVCAR-5 ovarian = system: OVCAR-5 ovarian
MDA-MB-231 breast = system: MDA-MB-231 breast
KM12 colon = system: KM12 colon
NCI-H23 lung = system: NCI-H23 lung
SK-MEL-2 melanoma = system: SK-MEL-2 melanoma
CAKI-1 renal = system: CAKI-1 renal
SF-539 CNS = system: SF-539 CNS
SF-295 CNS = system: SF-295 CNS
SNB-75 CNS = system: SNB-75 CNS
BT-549 breast = system: BT-549 breast
SK-OV-3 ovarian = system: SK-OV-3 ovarian
TK-10 renal = system: TK-10 renal
IGROV1 ovarian = system: IGROV1 ovarian
MCF7 breast = system: MCF7 breast
OVCAR-3 ovarian = system: OVCAR-3 ovarian
NCI-H226 lung = system: NCI-H226 lung
SNB-19 CNS = system: SNB-19 CNS
DU-145 prostate = system: DU-145 prostate
UACC-257 melanoma = system: UACC-257 melanoma
M14 melanoma = system: M14 melanoma
EKVX NSCLC = system: EKVX NSCLC
HCT-116 colon = system: HCT-116 colon
RXF 393 renal = system: RXF 393 renal
ACHN renal = system: ACHN renal
NCI-H460 lung = system: NCI-H460 lung
SF-268 CNS = system: SF-268 CNS
MDA-MB-435 = system: MDA-MB-435
HOP-62 NSCLC = system: HOP-62 NSCLC
HS 578T breast = system: HS 578T breast
UO-31 renal = system: UO-31 renal
HCC-2998 colon = system: HCC-2998 colon
A498 renal = system: A498 renal

Cc1nc2cnc(N)c(C#Cc3cncc(C(=O)Nc4ccc(Cl)c(C(F)(F)F)c4)c3)c2nc1C
GI50 (RPMI-8226 leukemia): 3.32 µM | TGI (RPMI-8226 leukemia): 22.5 µM | GI50 (PC-3 prostate): 3.9 µM | TGI (PC-3 prostate): 18.7 µM | GI50 (K-562 leukemia): 0.168 µM | TGI (K-562 leukemia): > 100 µM | GI50 (A549 NSCLC): 3.27 µM | TGI (A549 NSCLC): 22.6 µM | GI50 (MALME-3M melanoma): 0.118 µM | TGI (MALME-3M melanoma): 0.825 µM | GI50 (UACC-62 melanoma): 0.264 µM | TGI (UACC-62 melanoma): 2.15 µM | GI50 (SN12C renal): 1.16 µM | TGI (SN12C renal): 4 µM | GI50 (CCRF-CEM leukemia): 3.75 µM | TGI (CCRF-CEM leukemia): 52.8 µM | GI50 (HCT-15 colon): 1.55 µM | TGI (HCT-15 colon): 4.03 µM | GI50 (SK-MEL-28 melanoma): 0.264 µM | TGI (SK-MEL-28 melanoma): 1.68 µM | GI50 (SK-MEL-5 melanoma): 1.08 µM | TGI (SK-MEL-5 melanoma): 11.1 µM | GI50 (OVCAR-8 ovarian): 4.45 µM | TGI (OVCAR-8 ovarian): 24.5 µM | GI50 (786-0 renal): 3.41 µM | TGI (786-0 renal): 17.9 µM | GI50 (LOX IMVI melanoma): 0.257 µM | TGI (LOX IMVI melanoma): 1.43 µM | GI50 (MOLT-4 leukemia): 1.68 µM | TGI (MOLT-4 leukemia): 5.82 µM | GI50 (U251 CNS): 2.88 µM | TGI (U251 CNS): 16.9 µM | GI50 (HOP-92 NSCLC): 0.196 µM | TGI (HOP-92 NSCLC): 1.78 µM | GI50 (HL-60(TB) leukemia): 0.0754 µM | TGI (HL-60(TB) leukemia): 4.12 µM | GI50 (SW-620 colon): 0.891 µM | TGI (SW-620 colon): 11.2 µM | GI50 (SR leukemia): 1.71 µM | TGI (SR leukemia): 5.02 µM | GI50 (T-47D breast): 5.02 µM | TGI (T-47D breast): 27.6 µM | GI50 (NCI/ADR-RES ovarian): 2.95 µM | TGI (NCI/ADR-RES ovarian): 19.1 µM | GI50 (COLO 205 colon): 0.442 µM | TGI (COLO 205 colon): 9.17 µM | GI50 (NCI-H522 lung): 1.8 µM | TGI (NCI-H522 lung): 14.8 µM | GI50 (HT29 colon): 0.346 µM | TGI (HT29 colon): 2.11 µM | GI50 (OVCAR-4 ovarian): 4.01 µM | TGI (OVCAR-4 ovarian): 17 µM | GI50 (OVCAR-5 ovarian): 0.383 µM | TGI (OVCAR-5 ovarian): 11.3 µM | GI50 (MDA-MB-231 breast): 0.308 µM | TGI (MDA-MB-231 breast): 5.09 µM | TGI (KM12 colon): 3.53 µM | GI50 (NCI-H23 lung): 0.579 µM | TGI (NCI-H23 lung): 5.4 µM | GI50 (SK-MEL-2 melanoma): 0.328 µM | TGI (SK-MEL-2 melanoma): 1.89 µM | GI50 (CAKI-1 renal): 2.26 µM | TGI (CAKI-1 renal): 15.6 µM | GI50 (SF-539 CNS): 0.518 µM | TGI (SF-539 CNS): 10.2 µM | GI50 (SF-295 CNS): 3.44 µM | TGI (SF-295 CNS): 18.8 µM | GI50 (SNB-75 CNS): 2.43 µM | TGI (SNB-75 CNS): 11.8 µM | GI50 (BT-549 breast): 1.99 µM | TGI (BT-549 breast): 6.64 µM | GI50 (SK-OV-3 ovarian): 9.11 µM | TGI (SK-OV-3 ovarian): 23.3 µM | GI50 (TK-10 renal): 5.32 µM | TGI (TK-10 renal): 18.9 µM | GI50 (IGROV1 ovarian): 0.653 µM | TGI (IGROV1 ovarian): 12.6 µM | GI50 (MCF7 breast): 1.91 µM | TGI (MCF7 breast): 6.84 µM | GI50 (OVCAR-3 ovarian): 3.33 µM | TGI (OVCAR-3 ovarian): 12.7 µM | GI50 (NCI-H226 lung): 0.555 µM | TGI (NCI-H226 lung): 9.79 µM | GI50 (SNB-19 CNS): 6.53 µM | TGI (SNB-19 CNS): 20.7 µM | GI50 (DU-145 prostate): 2.93 µM | TGI (DU-145 prostate): 13.3 µM | GI50 (UACC-257 melanoma): 0.519 µM | TGI (UACC-257 melanoma): 9.65 µM | GI50 (M14 melanoma): 0.243 µM | TGI (M14 melanoma): 1.85 µM | GI50 (EKVX NSCLC): 2.48 µM | TGI (EKVX NSCLC): 19.1 µM | GI50 (HCT-116 colon): 0.249 µM | TGI (HCT-116 colon): 2.11 µM | GI50 (RXF 393 renal): 0.799 µM | TGI (RXF 393 renal): 4.23 µM | GI50 (ACHN renal): 1.89 µM | TGI (ACHN renal): 12.1 µM | GI50 (NCI-H460 lung): 2.3 µM | TGI (NCI-H460 lung): 10.2 µM | GI50 (SF-268 CNS): 2.46 µM | TGI (SF-268 CNS): 15.6 µM | GI50 (MDA-MB-435): 0.442 µM | TGI (MDA-MB-435): 4.06 µM | GI50 (HOP-62 NSCLC): 1.87 µM | TGI (HOP-62 NSCLC): 18.7 µM | GI50 (HS 578T breast): 1.64 µM | TGI (HS 578T breast): 7.19 µM | GI50 (UO-31 renal): 0.381 µM | TGI (UO-31 renal): 10.9 µM | GI50 (HCC-2998 colon): 0.771 µM | TGI (HCC-2998 colon): 4.35 µM | GI50 (A498 renal): 3.1 µM | TGI (A498 renal): 15.4 µM
